Paper PMC8839658, “Design and Activity of Novel Oxadiazole Based Compounds That Target Poly(ADP-ribose) Polymerase” (Molecules, 2022)

test system: MCF-7 cells; test: MCF-7 cell viability assay (Alamar Blue); assay type: cell-based, human; settings: Homo sapiens, MCF7, 72 h, MCF-7, 72 h, Alamar Blue; read-out: IC50, cell viability of MCF-7 cells
Method: Initially, the newly synthesized oxadiazoles were examined in cell viability studies in human breast cancer (MCF-7) cells using Alamar Blue assays.
MCF-7 and MDA-MB-231 (2000) cells were cultured in MEM or Leibovitz’s L-15 medium enriched with 2% FBS and maintained in a humidified atmosphere of 5% CO2 at 37 °C [44]. DMSO dissolved compounds were kept as a stock solution, and diluted with a cell culture medium to the desired concentration. Cancer cells (4 × 10^3) were grown overnight in 96-well plates, cultured, and treated with oxadiazoles or Olaparib at 0, 0.01, 0.1, 10, 100, and 1000 µM concentrations for 72 h. The inhibitory effect of the compounds was assessed using Alamar Blue reagent.
MCF-7 and MDA-MB-231 were treated with 5u, 5s and Olaparib (0, 0.01, 0.1, 1, 10, 100 µM) for 72 h, respectively. The viability of MCF-7 (A) and MDA-MB-231 cells (B) were analyzed using a microplate reader to measure the fluorescence of Alamar Blue reagent (excitation wavelength is between 530–560 nm and emission wavelength is 590 nm). The results are means of triplicate determinations.

IC50 [µM]	Compound
41.2	COc1ccc(Cc2nnc(-c3cccc(-c4cnc(F)c(C)c4)c3)o2)cc1 [C00018]
76.4	Cc1cncc(-c2cccc(-c3nnc(-c4ccc5c(c4)OCCO5)o3)c2)c1C [C00011]
205	FC(F)(F)c1ccc(-c2cccc(-c3nnc(-c4ccc5c(c4)OCCO5)o3)c2)cc1 [C00004]
27.1	COc1ccc(Cc2nnc(-c3cccc(-c4cccnc4)c3)o2)cc1OC [compound 5m, 2-(3,4-Dimethoxybenzyl)-5-(3-(pyridin-3-yl)phenyl)-1,3,4-oxadiazole]
161	O=C(NC1CCCC1)c1cccc(-c2cccc(-c3nnc(-c4ccc5c(c4)OCCO5)o3)c2)c1 [C00006]
30.9	COc1ccc(Cc2nnc(-c3cccc(-c4cccnc4)c3)o2)cc1 [C00013]
18.4	COc1ccc(Cc2nnc(-c3cccc(-c4cnc(F)c(C)c4)c3)o2)cc1OC [compound 5p, 2-(3,4-Dimethoxybenzyl)-5-(3-(6-fluoro-5-methylpyridin-3-yl)phenyl)-1,3,4-oxadiazole]
33.2	COc1ccc(Cc2nnc(-c3cccc(-c4cncc(C)c4C)c3)o2)cc1OC [C00009]
160	Cc1cc(-c2cccc(-c3nnc(-c4ccc5c(c4)OCCO5)o3)c2)cnc1Cl [C00002]
21.8	COc1ccc(Cc2nnc(-c3cccc(-c4cncnc4)c3)o2)cc1OC [compound 5h, 2-(3,4-Dimethoxybenzyl)-5-(3-(pyrimidin-5-yl)phenyl)-1,3,4-oxadiazole]
> 100	c1cc(-c2ccncc2)cc(-c2nnc(-c3ccc4c(c3)OCCO4)o2)c1 [C00012]
25	COc1ccc(Cc2nnc(-c3cccc(-c4ccnc(F)c4C)c3)o2)cc1 [compound 5r, 2-(3-(2-Fluoro-3-methylpyridin-4-yl)phenyl)-5-(4-methoxybenzyl)-1,3,4-oxadiazole]
265	Cc1c(-c2cccc(-c3nnc(-c4ccc5c(c4)OCCO5)o3)c2)ccnc1F [C00017]
182	c1cncc(-c2cccc(-c3nnc(-c4ccc5c(c4)OCCO5)o3)c2)c1 [C00016]
23.1	COc1ccc(Cc2nnc(-c3cccc(-c4ccc(C(C)=O)s4)c3)o2)cc1 [compound 5w, 1-(5-(3-(5-(4-Methoxybenzyl)-1,3,4-oxadiazol-2-yl)phenyl)thiophen-2-yl)ethanone]
85.3	O=Cc1cccc(-c2cccc(-c3nnc(-c4ccc5c(c4)OCCO5)o3)c2)c1 [C00021]
84	Cc1cc(-c2cccc(-c3nnc(-c4ccc5c(c4)OCCO5)o3)c2)cnc1F [C00022]
> 100	COc1ccc(Cc2nnc(-c3cccc(-c4ccc(C(C)=O)s4)c3)o2)cc1OC [C00025]
43.5	c1cc(-c2cncnc2)cc(-c2nnc(-c3ccc4c(c3)OCCO4)o2)c1 [C00007]
345	COc1cccc(-c2cccc(-c3nnc(-c4ccc5c(c4)OCCO5)o3)c2)c1 [C00008]
74.8	c1cc(-c2nnc(-c3ccc4c(c3)OCCO4)o2)cc(-c2cccc3ccccc23)c1 [C00010]
31.5	COc1ccc(Cc2nnc(-c3cccc(-c4cncnc4)c3)o2)cc1 [C00003]
0.24	COc1cccc2c1C(=O)c1c(O)c3c(c(O)c1C2=O)C[C@@](O)(C(=O)CO)C[C@@H]3O[C@H]1C[C@H](N)[C@H](O)[C@H](C)O1 [Doxorubicin, reference compound]

same assay, conditions: MCF-7, 72 h, Alamar Blue; read-out: IC50, cell viability of MCF-7 cells

IC50 [µM]	Compound
25	COc1ccc(Cc2nnc(-c3cccc(-c4ccnc(F)c4C)c3)o2)cc1 [C00024]
18.4	COc1ccc(Cc2nnc(-c3cccc(-c4cnc(F)c(C)c4)c3)o2)cc1OC [C00020]
27.1	COc1ccc(Cc2nnc(-c3cccc(-c4cccnc4)c3)o2)cc1OC [C00014]
1.45	COc1ccc(Cc2nnc(-c3cccc(-c4cccc(C=O)c4)c3)o2)cc1 [C00019]
15.3	COc1ccc(Cc2nnc(-c3cccc(-c4ccnc(F)c4C)c3)o2)cc1OC [C00015]
21.9	COc1ccc(Cc2nnc(-c3cccc(-c4cncnc4)c3)o2)cc1OC [C00005]
23.1	COc1ccc(Cc2nnc(-c3cccc(-c4ccc(C(C)=O)s4)c3)o2)cc1 [C00023]

target: T1, recombinant human PARP enzyme (PARP1) (Homo sapiens, UniProt P09874); test: PARP activity, PARP/Apoptosis Universal Colorimetric Assay Kit; assay type: biochemical; settings: 0.01 µM, n = 3
T1 construct: purchased R&D Systems Ltd., Abingdon, UK 4677-096-K
Method: PARP activity was measured using the PARP/Apoptosis Universal Colorimetric Assay Kit (4677-096-K, R&D Systems Ltd., Abingdon, UK). The enzyme inhibition assay uses the histone proteins immobilized 96-well plate, which measures the incorporation of ADP-ribose (biotin-tagged), followed by detection using streptavidin-conjugated horse-radish peroxidase, and finally the color development after the addition of substrate. Oxadiazoles were incubated with the recombinant human PARP enzyme prior to detection.

T1 sequence (P09874 whole entry): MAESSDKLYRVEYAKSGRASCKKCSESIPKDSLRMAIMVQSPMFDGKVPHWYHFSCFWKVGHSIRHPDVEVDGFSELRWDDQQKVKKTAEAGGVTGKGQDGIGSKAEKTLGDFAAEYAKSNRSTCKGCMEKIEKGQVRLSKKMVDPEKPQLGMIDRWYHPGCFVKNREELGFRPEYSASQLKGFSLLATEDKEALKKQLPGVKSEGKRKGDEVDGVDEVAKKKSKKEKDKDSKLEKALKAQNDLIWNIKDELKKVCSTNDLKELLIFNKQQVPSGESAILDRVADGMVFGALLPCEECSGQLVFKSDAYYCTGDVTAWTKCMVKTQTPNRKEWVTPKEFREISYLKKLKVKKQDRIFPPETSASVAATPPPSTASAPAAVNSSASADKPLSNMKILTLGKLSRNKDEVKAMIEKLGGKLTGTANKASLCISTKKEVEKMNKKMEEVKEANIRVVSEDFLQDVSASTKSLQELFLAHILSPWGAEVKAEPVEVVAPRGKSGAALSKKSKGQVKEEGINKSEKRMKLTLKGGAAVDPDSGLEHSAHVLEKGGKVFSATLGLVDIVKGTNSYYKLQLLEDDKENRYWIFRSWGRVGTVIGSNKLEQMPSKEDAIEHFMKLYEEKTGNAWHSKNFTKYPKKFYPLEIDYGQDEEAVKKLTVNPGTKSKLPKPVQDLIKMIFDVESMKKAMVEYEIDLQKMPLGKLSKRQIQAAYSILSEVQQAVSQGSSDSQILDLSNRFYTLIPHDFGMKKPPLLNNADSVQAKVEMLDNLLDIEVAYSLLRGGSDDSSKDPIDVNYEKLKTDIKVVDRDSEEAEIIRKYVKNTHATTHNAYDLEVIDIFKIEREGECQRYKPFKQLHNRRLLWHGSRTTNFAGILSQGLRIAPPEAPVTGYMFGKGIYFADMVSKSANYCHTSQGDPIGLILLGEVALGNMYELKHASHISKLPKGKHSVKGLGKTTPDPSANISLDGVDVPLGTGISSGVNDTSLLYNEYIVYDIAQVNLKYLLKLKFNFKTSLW

inhibition at 0.01 µM [%]	Compound
0.5	NC(=O)c1cccc(N)c1 [3-Aminobenzamide, reference compound]

same assay, conditions: 0.1 µM, n = 3

inhibition at 0.1 µM [%]	Compound
6.17	NC(=O)c1cccc(N)c1 [3-Aminobenzamide, reference compound]

same assay, conditions: 1 µM, n = 3

inhibition at 1 µM [%]	Compound
23.3	NC(=O)c1cccc(N)c1 [3-Aminobenzamide, reference compound]

same assay, conditions: 10 µM, n = 3

inhibition at 10 µM [%]	Compound
56.6	NC(=O)c1cccc(N)c1 [3-Aminobenzamide, reference compound]

same assay, conditions: 100 µM, n = 3

inhibition at 100 µM [%]	Compound
85.7	NC(=O)c1cccc(N)c1 [3-Aminobenzamide, reference compound]

test system: not given; test: not given; settings: not given

melting point [°C]	Compound
160 to 162	FC(F)(F)c1ccc(-c2cccc(-c3nnc(-c4ccc5c(c4)OCCO5)o3)c2)cc1 [5b, 2-(2,3-Dihydrobenzo[b][1,4]dioxin-6-yl)-5-(4′-(trifluoromethyl)-[1,1′-biphenyl]-3-yl)-1,3,4-oxadiazole]
138 to 140	c1cncc(-c2cccc(-c3nnc(-c4ccc5c(c4)OCCO5)o3)c2)c1 [5n, 2-(2,3-Dihydrobenzo[b][1,4]dioxin-6-yl)-5-(3-(pyridin-3-yl)phenyl)-1,3,4-oxadiazole]
194 to 196	c1cc(-c2ccncc2)cc(-c2nnc(-c3ccc4c(c3)OCCO4)o2)c1 [5f, 2-(2,3-Dihydrobenzo[b][1,4]dioxin-6-yl)-5-(3-(pyridin-4-yl)phenyl)-1,3,4-oxadiazole]
198 to 200	Cc1cncc(-c2cccc(-c3nnc(-c4ccc5c(c4)OCCO5)o3)c2)c1C [5k, 2-(2,3-Dihydrobenzo[b][1,4]dioxin-6-yl)-5-(3-(4,5-dimethylpyridin-3-yl)phenyl)-1,3,4-oxadiazole]
78 to 80	COc1ccc(Cc2nnc(-c3cccc(-c4cccnc4)c3)o2)cc1OC [compound 5m, 2-(3,4-Dimethoxybenzyl)-5-(3-(pyridin-3-yl)phenyl)-1,3,4-oxadiazole]
91 to 93	COc1ccc(Cc2nnc(-c3cccc(-c4cnc(F)c(C)c4)c3)o2)cc1OC [compound 5p, 2-(3,4-Dimethoxybenzyl)-5-(3-(6-fluoro-5-methylpyridin-3-yl)phenyl)-1,3,4-oxadiazole]
98 to 100	COc1ccc(Cc2nnc(-c3cccc(-c4cncnc4)c3)o2)cc1OC [compound 5h, 2-(3,4-Dimethoxybenzyl)-5-(3-(pyrimidin-5-yl)phenyl)-1,3,4-oxadiazole]
90 to 92	COc1ccc(Cc2nnc(-c3cccc(-c4cncc(C)c4C)c3)o2)cc1OC [compound 5j, 2-(3,4-Dimethoxybenzyl)-5-(3-(4,5-dimethylpyridin-3-yl)phenyl)-1,3,4-oxadiazole]
94 to 96	COc1ccc(Cc2nnc(-c3cccc(-c4ccnc(F)c4C)c3)o2)cc1 [compound 5r, 2-(3-(2-Fluoro-3-methylpyridin-4-yl)phenyl)-5-(4-methoxybenzyl)-1,3,4-oxadiazole]
86 to 88	COc1ccc(Cc2nnc(-c3cccc(-c4cnc(F)c(C)c4)c3)o2)cc1 [compound 5o, 2-(3-(6-Fluoro-5-methylpyridin-3-yl)phenyl)-5-(4-methoxybenzyl)-1,3,4-oxadiazole]
90 to 92	COc1ccc(Cc2nnc(-c3cccc(-c4cncnc4)c3)o2)cc1 [compound 5g, 2-(4-Methoxybenzyl)-5-(3-(pyrimidin-5-yl)phenyl)-1,3,4-oxadiazole]
186 to 188	O=C(NC1CCCC1)c1cccc(-c2cccc(-c3nnc(-c4ccc5c(c4)OCCO5)o3)c2)c1 [5c, N-Cyclopentyl-3′-(5-(2,3-dihydrobenzo[b][1,4]dioxin-6-yl)-1,3,4-oxadiazol-2-yl)-[1,1′-biphenyl]-3-carboxamide]
128 to 130	Cc1c(-c2cccc(-c3nnc(-c4ccc5c(c4)OCCO5)o3)c2)ccnc1F [5t, 2-(2,3-Dihydrobenzo[b][1,4]dioxin-6-yl)-5-(3-(2-fluoro-3-methylpyridin-4-yl)phenyl)-1,3,4-oxadiazole]
156 to 158	c1cc(-c2nnc(-c3ccc4c(c3)OCCO4)o2)cc(-c2cccc3ccccc23)c1 [5e, 2-(2,3-Dihydrobenzo[b][1,4]dioxin-6-yl)-5-(3-(naphthalen-1-yl)phenyl)-1,3,4-oxadiazole]
190 to 192	c1cc(-c2cncnc2)cc(-c2nnc(-c3ccc4c(c3)OCCO4)o2)c1 [5i, 2-(2,3-Dihydrobenzo[b][1,4]dioxin-6-yl)-5-(3-(pyrimidin-5-yl)phenyl)-1,3,4-oxadiazole]
144 to 146	Cc1cc(-c2cccc(-c3nnc(-c4ccc5c(c4)OCCO5)o3)c2)cnc1F [5q, 2-(2,3-Dihydrobenzo[b][1,4]dioxin-6-yl)-5-(3-(6-fluoro-5-methylpyridin-3-yl)phenyl)-1,3,4-oxadiazole]
